The results in this text go back to patent publication US10988465B2, “CXCR4 inhibitors and uses thereof” (X4 Pharmaceuticals, Inc., priority 2016, dated 2021).

The data set can be described thus: MTD, pharmacokinetics and brain penetration after PO administration. In kind it is in vivo, male C57BL/6 mice. The settings on record: male; for half-life: MTD mouse, read-out: t½ (converted); for AUC(0-t): C57BL/6, mouse. The protocol:
All PO dosing solutions were prepared in 50 mM citrate buffer (pH 4.0).
The blood collection was performed as follows: the animal was restrained manually at the designated time points, approximately 500 μL of blood sample was collected via cardiac puncture vein into EDTA-2K tubes. The whole blood needed to be divided into two parts; one part was placed in the tube containing EDTA-2K for plasma generation and the other was used for the hematology assay, respectively. The blood samples for plasma generation were maintained in wet ice first and centrifuged to obtain plasma (2000 g, 4° C., 5 min) within 15 minutes post sampling. The brain collection was performed as follows: a mid-line incision was made in the animal's scalp and the skin was retracted. Using small bone cutters and rongeurs, the skull overlying the brain was removed. The brain was removed using a spatula and rinsed with cold saline. The brain was placed in screw-top tubes, and then stored at −70° C. until analysis. The CSF collection was performed as follows: a mid line incision was made on the neck. The muscle under the skin was cut to expose the cisterna magna. The cisterna magna was penetrated with the sharp end of one capillary (Burn one end of capillary to make it sharp). The CSF was sucked spontaneously into the capillary.
Plasma sample preparation: An aliquot of 30 μL sample was added with 100 μL MeCN containing 100 ng/mL IS (Dexamethasone). The mixture was vortexed for 10 min and centrifuged at 5800 rpm for 10 min. An aliquot of 40 μL supernatant was added to 40 μL H2O and the mixture was vortexed for 5 min. An aliquot of 2 μL supernatant was injected for LC-MS/MS analysis.
An aliquot of 30 μL brain homogenate (brain:PBS=1:3, w/v) sample was added to 100 μL MeCN containing 100 ng/mL IS (Dexamethasone). The mixture was vortexed for 10 min and centrifuged at 5800 rpm for 10 min. An aliquot of 40 μL supernatant was added to 40 μL H2O and the mixture was vortexed for 5 min. An aliquot of 2 μL supernatant was injected for LC-MS/MS analysis.
An aliquot of 3 μL sample was added to a mixture of 6 μL CSF, 9 μL MeOH/H2O (1/1), 40 μL MeCN containing 200 ng/mL IS (Dexamethasone), and 116 μL H2O. The mixture was vortexed for 5 min. An aliquot of 4 μL was injected for LC-MS/MS analysis.
The sample analysis was performed on UPLC-MS/MS-02 (Triple Quad™ 4000) under the following conditions: positive ion, ESI, MRM detection using dexamethasone as internal standard. HPLC conditions: mobile phase A: H2O-0.1% formic acid, mobile phase B: MeCN-0.1% formic acid on: ACQUITY UPLC HSS T3 (2.1×50 mm, 1.8 μm) at 60° C.

Like-named read-outs stand apart in the source and are kept apart here.

With `Cc1cccnc1[C@@H]1CCC[C@H](c2nc3cccc(N4CCN(C)CC4)c3[nH]2)N1C` (racemic) [I-3, 2-((2R,6S)-1-methyl-6-(3-methylpyridin-2-yl)piperidin-2-yl)-7-(4-methylpiperazin-1-yl)-1H-benzo[d]imidazole], the half-life by setting is: (C57BL/6, in vivo, single administration, D 1-50 mg/kg) 198 min; (C57BL/6, plasma, multiple administration, D 5-300 mg/kg) 366 min. Moreover, the AUC(0-t) reads like this: (brain, multiple administration, D 5-300 mg/kg, read-out: AUClast (b)) 384000 ng·h/mL; (brain, single administration, D 1-50 mg/kg, read-out: AUClast (b)) 15500 ng·h/mL; (plasma, multiple administration, D 5-300 mg/kg, read-out: AUClast (p)) 142000 ng·h/mL; (plasma, single administration, D 1-50 mg/kg, read-out: AUClast (p)) 7100 ng·h/mL.
